Experimental data from US20220378801A1, “NOVEL COMPOUNDS” (AC Immune SA, priority 2019, published 2022).

What was measured:
Assay type in all cases: cell-based
NLRP3 inflammasome [1] = molecular target: T1, NLRP3 inflammasome (Homo sapiens, UniProt Q96P20); assay: NLRP3 inflammasome activation assay, IL-1 beta release, HMDM cells, Nigericin stimulation; details: LPS-primed primary human monocyte-derived macrophages; Nigericin 2.5 μM 3 h; IL-1β by AlphaLISA
Description: (§1) The following assays can be used to determine the inhibitory activity of test compounds on the NLRP3 inflammasome using common stimuli nigericin (Invivogen) or monosodium urate crystals (MSU)(Invivogen).
(§2) Human monocyte-like cells are cultured in RPM11640 Glutamax medium supplemented with 10% heat inactivated FCS and 50 U/ml penicillin-streptomycin (Life Technologies). HMDM (Human Monocyte Derived Macrophage) are isolated from human blood with leucosep tubes and classical monocyte isolation kit from Miltenyi based on negative selection.
(§3) Primary human monocyte-derived macrophages (HMDM) are seeded at 30000 per well in a 96 well plate and differentiated into macrophages with 10 ng/ml Human M-CSF (Macrophage Colony Stimulating Factor). At DIV 8 (Day in vitro) medium containing 10 ng/ml LPS is added. After 3 h of LPS priming, concentrations of test compound in the range from […] are added 30 min prior to NLRP3 inflammasome stimulation with Nigericin 2.5 μM or MSU 150 μg/ml for 3 h.
(§4) For IL-1β quantification, supernatants are analyzed using AlphaLISA kits according to the manufacturer's instructions (Perkin Elmer AlphaLISA AL220F).
(§5) IC50 (concentration corresponding to 50% inhibition) were determined using GraphPad Prism 8.

NLRP3 inflammasome [2] = molecular target: T1, NLRP3 inflammasome; assay: NLRP3 inflammasome activation assay, IL-1 beta release, human monocyte-like cells, MSU stimulation; parameters: endogenous in cells; details: PMA-differentiated, LPS-primed human monocyte-like cells; MSU 150 μg/ml 3 h; IL-1β by AlphaLISA
Description: as §1, §2
(§6) NLRP3 inflammasome activation assays Human monocyte-like cells are seeded at 75000 per well in a 96 well plate and differentiated overnight into macrophages with 10 ng/ml PMA (Phorbol Myristate Acetate). The following day, medium containing 10 ng/ml LPS (lipopolysaccharide) is added. After 3 h of LPS priming, concentrations of test compound in the range from 100 μM to 6 nM are added 30 min prior to NLRP3 inflammasome stimulation with Nigericin 3.75 μM or MSU 150 μg/ml for 3 h.
as §4, §5

NLRP3 inflammasome [3] = molecular target: T1, NLRP3 inflammasome; assay: NLRP3 inflammasome activation assay, IL-1 beta release, human monocyte-like cells, Nigericin stimulation; parameters: endogenous in cells; details: PMA-differentiated, LPS-primed human monocyte-like cells; Nigericin 3.75 μM 3 h; IL-1β by AlphaLISA
Description: as §1, §2, §6, §4, §5

NLRP3 inflammasome [4] = molecular target: T1, NLRP3 inflammasome; assay: NLRP3 inflammasome activation assay, IL-1 beta release, HMDM cells, MSU stimulation; details: LPS-primed primary human monocyte-derived macrophages; MSU 150 μg/ml 3 h; IL-1β by AlphaLISA
Description: as §1, §2, §3, §4, §5

T1 sequence (Q96P20 whole entry): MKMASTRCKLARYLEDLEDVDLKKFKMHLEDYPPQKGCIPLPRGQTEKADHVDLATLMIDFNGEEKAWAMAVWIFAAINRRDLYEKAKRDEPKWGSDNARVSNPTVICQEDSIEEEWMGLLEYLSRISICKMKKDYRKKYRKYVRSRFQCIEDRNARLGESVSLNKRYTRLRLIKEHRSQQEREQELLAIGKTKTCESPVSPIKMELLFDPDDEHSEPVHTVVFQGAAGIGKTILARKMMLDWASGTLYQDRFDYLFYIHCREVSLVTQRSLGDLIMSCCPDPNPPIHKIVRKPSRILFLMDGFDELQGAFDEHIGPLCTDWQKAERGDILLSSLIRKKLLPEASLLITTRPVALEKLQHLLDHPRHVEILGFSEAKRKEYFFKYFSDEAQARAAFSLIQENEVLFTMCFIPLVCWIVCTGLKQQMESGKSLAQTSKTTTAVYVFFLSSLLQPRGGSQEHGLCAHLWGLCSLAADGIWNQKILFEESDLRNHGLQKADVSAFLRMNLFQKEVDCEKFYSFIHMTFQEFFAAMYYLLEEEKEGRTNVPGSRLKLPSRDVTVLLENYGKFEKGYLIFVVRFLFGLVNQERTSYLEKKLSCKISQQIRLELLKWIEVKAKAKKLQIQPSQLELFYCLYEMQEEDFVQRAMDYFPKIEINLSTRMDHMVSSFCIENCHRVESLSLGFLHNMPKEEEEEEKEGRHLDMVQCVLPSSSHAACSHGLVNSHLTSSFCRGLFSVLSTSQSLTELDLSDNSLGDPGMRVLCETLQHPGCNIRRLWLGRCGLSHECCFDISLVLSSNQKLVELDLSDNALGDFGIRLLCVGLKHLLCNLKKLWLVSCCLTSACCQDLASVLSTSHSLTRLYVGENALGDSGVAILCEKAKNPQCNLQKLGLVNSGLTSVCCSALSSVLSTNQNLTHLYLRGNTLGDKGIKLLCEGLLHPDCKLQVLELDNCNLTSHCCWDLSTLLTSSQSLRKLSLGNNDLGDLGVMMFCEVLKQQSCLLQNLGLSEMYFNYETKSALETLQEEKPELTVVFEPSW

| Compound | IC50 (NLRP3 inflammasome [1]) [nM] | IC50 (NLRP3 inflammasome [2]) [nM] | IC50 (NLRP3 inflammasome [3]) [nM] | IC50 (NLRP3 inflammasome [4]) [nM] |
| --- | --- | --- | --- | --- |
| O=C(Nc1c2c(cc3c1CCC3)CCC2)NS1(=O)=NC(=O)c2nc(Cl)ccc21 (single isomer, unassigned) [Example 64] | 1000 to 10000 | < 1000 | < 1000 |  |
| O=C(Nc1c2c(c(F)c3c1CCC3)CCC2)NS1(=O)=NC(=O)c2sccc21 (single isomer, unassigned) [Example 54] |  | < 1000 | 1000 to 10000 | 1000 to 10000 |
| COc1cc(-c2cc(F)cc(C(C)C)c2NC(=O)NS2(=O)=NC(=O)c3sccc32)ccn1 (centres unmarked) [Example 17] |  | < 1000 | < 1000 |  |
| O=C(Nc1c2c(cc3c1CCC3)CCC2)NS1(=O)=NC(=O)c2ccncc21 (single isomer, unassigned) [Example 38] |  | < 1000 | 1000 to 10000 |  |
| O=C(Nc1c(Br)ccc2c1CCO2)NS1(=O)=NC(=O)c2sccc21 (single isomer, unassigned) [Example 56] |  | 1000 to 10000 | 10000 to 30000 |  |
| O=C(Nc1c2c(cc3c1CCC3)CCC2)NS1(=O)=NC(=O)c2c(Cl)cccc21 (single isomer, unassigned) [Example 43] |  | < 1000 | 1000 to 10000 |  |
| O=C(N=S1(=O)NC(=O)c2ccc(C(F)(F)F)cc21)Nc1c2c(cc3c1CCC3)CCC2 (centres unmarked) [Example 27] |  | < 1000 | 1000 to 10000 |  |
| O=C(Nc1c2c(cc3c1CCC3)CCC2)NS1(=O)=NC(=O)c2ncccc21 (centres unmarked) [Example 8] |  | 1000 to 10000 | 1000 to 10000 |  |
| COC(=O)c1ccc2c(c1)S(=O)(=NC(=O)Nc1c3c(cc4c1CCC4)CCC3)NC2=O (centres unmarked) [Example 9] |  | 1000 to 10000 | 1000 to 10000 |  |
| O=C(Nc1c2c(cc3c1CCC3)CCC2)NS1(=O)=NC(=O)c2c(F)cccc21 (single isomer, unassigned) [Example 61] |  | < 1000 | 1000 to 10000 |  |
| O=C(Nc1c2c(cc3c1CCC3)CCC2)NS1(=O)=NC(=O)c2sccc21 (single isomer, unassigned) [Example 35] |  | < 1000 | 1000 to 10000 | 1000 to 10000 |
| O=C(Nc1c2c(cc3c1CCC3)CCC2)NS1(=O)=NC(=O)c2c(F)cccc21 (centres unmarked) [Example 25] |  | < 1000 | 1000 to 10000 | < 1000 |
| O=C(N=S1(=O)NC(=O)c2cccnc21)Nc1c2c(cc3c1CCC3)CCC2 (centres unmarked) [Example 2] |  | < 1000 | 1000 to 10000 | 1000 to 10000 |
| COc1cc(-c2ccc3c(c2NC(=O)NS2(=O)=NC(=O)c4sccc42)CCC3)ccn1 (single isomer, unassigned) [Example 52] |  | 1000 to 10000 | 1000 to 10000 |  |
| Cc1cccc2c1C(=O)N=S2(=O)NC(=O)Nc1c2c(cc3c1CCC3)CCC2 (single isomer, unassigned) [Example 46] |  | < 1000 | 1000 to 10000 |  |
| O=C(N=S1(=O)NC(=O)c2ccc(Br)cc21)Nc1c2c(cc3c1CCC3)CCC2 (centres unmarked) [Example 24] |  | < 1000 | 1000 to 10000 | 1000 to 10000 |
| COc1cc(-c2cc(F)cc(C(C)C)c2NC(=O)NS2(=O)=NC(=O)c3sccc32)ccn1 (single isomer, unassigned) [Example 50] |  | 1000 to 10000 | 1000 to 10000 |  |
| Cc1cccc2c1C(=O)N=S2(=O)NC(=O)Nc1c2c(cc3c1CCC3)CCC2 (single isomer, unassigned) [Example 47] |  | < 1000 | 1000 to 10000 |  |
| O=C(Nc1c2c(cc3c1CCC3)CCC2)NS1(=O)=NC(=O)c2cc(Br)ccc21 (single isomer, unassigned) [Example 58] |  | < 1000 | 1000 to 10000 |  |
| O=C(Nc1c2c(cc3c1CCC3)CCC2)NS1(=O)=NC(=O)c2cc(Cl)ccc21 (single isomer, unassigned) [Example 44] |  | < 1000 | 1000 to 10000 |  |

| Compound | IC50 (NLRP3 inflammasome [1]) [nM] | IC50 (NLRP3 inflammasome [2]) [nM] | IC50 (NLRP3 inflammasome [3]) [nM] | IC50 (NLRP3 inflammasome [4]) [nM] |
| --- | --- | --- | --- | --- |
| O=C(Nc1c2c(cc3c1CCC3)CCC2)NS1(=O)=NC(=O)c2cc(Br)ccc21 (single isomer, unassigned) [Example 59] |  | 1000 to 10000 | 1000 to 10000 |  |
| O=C(Nc1cc2c(c3c1CCC3)CCC2)NS1(=O)=NC(=O)c2ccccc21 (centres unmarked) [Example 6] |  | 1000 to 10000 | 1000 to 10000 | 1000 to 10000 |
| O=C(Nc1c2c(cc3c1CCC3)CCC2)NS1(=O)=NC(=O)c2ccc(F)cc21 (centres unmarked) [Example 28] |  | < 1000 | 1000 to 10000 |  |
| CC(C)c1ccc2c(c1NC(=O)NS1(=O)=NC(=O)c3sccc31)CCO2 (single isomer, unassigned) [Example 49] |  | < 1000 | 1000 to 10000 |  |
| O=C(Nc1c2c(cc3c1CCC3)CCC2)NS1(=O)=NC(=O)c2cc(Cl)ccc21 (centres unmarked) [Example 12] |  | 1000 to 10000 | 1000 to 10000 | 1000 to 10000 |
| O=C(Nc1c2c(cc3c1CCC3)CCC2)NS1(=O)=NC(=O)c2cc(Br)ccc21 (centres unmarked) [Example 23] |  | < 1000 | 1000 to 10000 |  |
| COc1ccc2c(c1)S(=O)(NC(=O)Nc1c3c(cc4c1CCC4)CCC3)=NC2=O (centres unmarked) [Example 15] |  | < 1000 | < 1000 |  |
| O=C(Nc1c2c(cc3c1CCC3)CCC2)NS1(=O)=NC(=O)c2ncccc21 (single isomer, unassigned) [Example 39] |  | 1000 to 10000 | 1000 to 10000 |  |
| O=C(Nc1c2c(cc3c1CCC3)CCC2)NS1(=O)=NC(=O)c2ccccc2C1 (single isomer, unassigned) [Example 33] |  | < 1000 | 1000 to 10000 |  |
| O=C(Nc1c2c(cc3c1CCC3)CCC2)NS1(=O)=NC(=O)c2ccc(Cl)cc21 (centres unmarked) [Example 13] |  | < 1000 | 1000 to 10000 |  |
| CC(C)(O)c1ccc2c(c1)S(=O)(=NC(=O)Nc1c3c(cc4c1CCC4)CCC3)NC2=O (single isomer, unassigned) [Example 40] |  | < 1000 | 1000 to 10000 | 1000 to 10000 |
| O=C(Nc1c2c(cc3c1CCC3)CCC2)NS1(=O)=NC(=O)c2cc(F)ccc21 (centres unmarked) [Example 26] |  | < 1000 | 1000 to 10000 | < 1000 |
| COc1cc(-c2cc(F)cc(C(C)C)c2NC(=O)NS2(=O)=NC(=O)c3sccc32)ccn1 (single isomer, unassigned) [Example 51] |  | < 1000 | < 1000 |  |
| O=C(Nc1c2c(cc3c1CCC3)CCC2)NS1(=O)=NC(=O)c2ccc(F)cc21 (single isomer, unassigned) [Example 63] |  | < 1000 | 1000 to 10000 | 1000 to 10000 |
| COc1cc(-c2ccc3c(c2NC(=O)NS2(=O)=NC(=O)c4sccc42)CCC3)ccn1 (single isomer, unassigned) [Example 53] |  | < 1000 | < 1000 |  |
| O=C(N=S1(=O)NC(=O)c2cccnc21)Nc1c2c(cc3c1CCC3)CCC2 (single isomer, unassigned) [Example 32] |  | < 1000 | 1000 to 10000 |  |
| O=C(Nc1c2c(cc3c1CCC3)CCC2)NS1(=O)=NC(=O)c2ccncc21 (centres unmarked) [Example 7] |  | < 1000 | 1000 to 10000 | 1000 to 10000 |
| N#Cc1ccc2c(c1)C(=O)N=S2(=O)NC(=O)Nc1c2c(cc3c1CCC3)CCC2 (centres unmarked) [Example 10] |  | < 1000 | 1000 to 10000 |  |
| COc1ccc2c(c1)C(=O)N=S2(=O)NC(=O)Nc1c2c(cc3c1CCC3)CCC2 (centres unmarked) [Example 22] |  | < 1000 | 1000 to 10000 |  |
| O=C(Nc1c2c(cc3c1CCC3)CCC2)NS1(=O)=NC(=O)c2ccc(Cl)cc21 (single isomer, unassigned) [Example 45] |  | < 1000 | 1000 to 10000 |  |
